Drawing on patent publication US11661431B2, “Thienopyrrole compounds” (Gilead Sciences, Inc., priority 2021, dated 2023), this text covers EC50 for 25 compounds.

One assay concerns the target TLR8 (Homo sapiens (Human), UniProt Q9NR97). Nature of the assay: TLR8 human peripheral blood mononuclear cell (PBMC) cell-based assay (Compound A as agonist; TNFα and IL12p40 readout). Conditions: human PBMCs, TLR8 agonist Compound A at 800 nM, 6 hours, antagonist potency; read-out: TLR-8 EC50. Here is the method:
After counting, the cell density was adjusted to 2 million cells/ml and incubated for 1 hour at 37° C., 5% CO2 for recovery. Following the recovery, the cells were plated by adding 50 μl per well (100,000 cells) to 384-well cell culture plates (Greiner) containing 250 nl of test antagonists in 100% DMSO per well, in a 10 points dose response in quadruplicates. PBMCs were incubated in the presence of antagonists for one hour at 37° C., 5% CO2 before being stimulated with TLR8 agonist. […] PBMCs were incubated in the presence of antagonist and the TLR8 agonist for an additional 6 hours at 37° C., 5% CO2. At the end of the incubation, the cell culture plates were centrifuged at 500 g for 5 min, and the cell culture supernatant was collected. The level of cytokines (TNFα and IL12p40) in the supernatant was measured by electrochemiluminescence immunoassays (Mesoscale Discovery) following manufacturer's recommended protocols.

The target of another assay is TLR7 (Homo sapiens (Human), UniProt Q9NYK1). The assay can be described thus: TLR7 human peripheral blood mononuclear cell (PBMC) cell-based assay (GS-986 as agonist; IL-6 and IFNα readout). Conditions: human PBMCs, TLR7 agonist GS-986 at 400 nM, 6 hours, antagonist potency; read-out: TLR-7 EC50. The method, then: Human peripheral blood mononuclear cells (PBMCs) consist of lymphocytes, monocytes and dendritic cells that express TLR7, TLR8 and TLR9. These cells respond to TLR7, TLR8 and TLR9 ligand stimulation and produce cytokines and chemokines in vitro and in vivo. Human PBMCs are therefore suitable to be used in a cell-based assay to assess the in vitro potency of a TLR 7, 8, and/or 9 antagonist.
After counting, the cell density was adjusted to 2 million cells/ml and incubated for 1 hour at 37° C., 5% CO2 for recovery. Following the recovery, the cells were plated by adding 50 μl per well (100,000 cells) to 384-well cell culture plates (Greiner) containing 250 nl of test antagonists in 100% DMSO per well, in a 10 points dose response in quadruplicates. PBMCs were incubated in the presence of test antagonists for one hour at 37° C., 5% CO2 before being stimulated with a TLR7 or TLR9agonist. […] PBMCs were incubated in the presence of the test antagonist and the TLR7 (or TLR9) agonist for an additional 6 hours at 37° C., 5% CO2. At the end of the incubation, the cell culture plates were centrifuged at 500 g for 5 min, and the cell culture supernatant was collected. The level of cytokines (IL-6 and IFNα) in the supernatant was measured by electrochemiluminescence immunoassays (Mesoscale Discovery) following manufacturer's recommended protocols.

SMILES strings stand for the structures.

Chain of TLR7 (Q9NYK1 27-1049): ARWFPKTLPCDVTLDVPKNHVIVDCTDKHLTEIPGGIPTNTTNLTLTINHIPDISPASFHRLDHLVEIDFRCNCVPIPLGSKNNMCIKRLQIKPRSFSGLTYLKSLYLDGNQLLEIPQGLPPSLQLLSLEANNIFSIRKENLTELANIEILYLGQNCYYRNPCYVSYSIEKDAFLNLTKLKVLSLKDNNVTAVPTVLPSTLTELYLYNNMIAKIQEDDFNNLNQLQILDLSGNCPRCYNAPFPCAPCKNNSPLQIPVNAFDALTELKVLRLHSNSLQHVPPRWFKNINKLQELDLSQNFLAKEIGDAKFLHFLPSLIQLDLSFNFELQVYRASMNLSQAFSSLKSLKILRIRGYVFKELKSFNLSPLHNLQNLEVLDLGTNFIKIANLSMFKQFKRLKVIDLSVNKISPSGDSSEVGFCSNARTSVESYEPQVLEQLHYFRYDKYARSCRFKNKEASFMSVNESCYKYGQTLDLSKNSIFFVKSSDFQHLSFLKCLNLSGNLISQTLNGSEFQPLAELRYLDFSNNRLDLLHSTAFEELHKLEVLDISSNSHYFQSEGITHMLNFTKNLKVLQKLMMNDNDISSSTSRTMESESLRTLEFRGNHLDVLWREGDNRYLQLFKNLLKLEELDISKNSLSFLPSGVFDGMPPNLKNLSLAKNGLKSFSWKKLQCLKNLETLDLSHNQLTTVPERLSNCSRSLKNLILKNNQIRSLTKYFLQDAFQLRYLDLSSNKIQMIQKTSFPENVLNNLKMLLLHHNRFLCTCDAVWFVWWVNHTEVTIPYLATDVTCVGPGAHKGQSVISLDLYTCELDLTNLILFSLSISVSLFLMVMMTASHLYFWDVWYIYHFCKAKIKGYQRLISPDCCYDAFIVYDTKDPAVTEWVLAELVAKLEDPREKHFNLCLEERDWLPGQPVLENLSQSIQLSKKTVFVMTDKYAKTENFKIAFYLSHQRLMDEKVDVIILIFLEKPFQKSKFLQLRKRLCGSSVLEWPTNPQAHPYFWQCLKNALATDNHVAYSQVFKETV
Chain of TLR8 (Q9NR97 27-1041): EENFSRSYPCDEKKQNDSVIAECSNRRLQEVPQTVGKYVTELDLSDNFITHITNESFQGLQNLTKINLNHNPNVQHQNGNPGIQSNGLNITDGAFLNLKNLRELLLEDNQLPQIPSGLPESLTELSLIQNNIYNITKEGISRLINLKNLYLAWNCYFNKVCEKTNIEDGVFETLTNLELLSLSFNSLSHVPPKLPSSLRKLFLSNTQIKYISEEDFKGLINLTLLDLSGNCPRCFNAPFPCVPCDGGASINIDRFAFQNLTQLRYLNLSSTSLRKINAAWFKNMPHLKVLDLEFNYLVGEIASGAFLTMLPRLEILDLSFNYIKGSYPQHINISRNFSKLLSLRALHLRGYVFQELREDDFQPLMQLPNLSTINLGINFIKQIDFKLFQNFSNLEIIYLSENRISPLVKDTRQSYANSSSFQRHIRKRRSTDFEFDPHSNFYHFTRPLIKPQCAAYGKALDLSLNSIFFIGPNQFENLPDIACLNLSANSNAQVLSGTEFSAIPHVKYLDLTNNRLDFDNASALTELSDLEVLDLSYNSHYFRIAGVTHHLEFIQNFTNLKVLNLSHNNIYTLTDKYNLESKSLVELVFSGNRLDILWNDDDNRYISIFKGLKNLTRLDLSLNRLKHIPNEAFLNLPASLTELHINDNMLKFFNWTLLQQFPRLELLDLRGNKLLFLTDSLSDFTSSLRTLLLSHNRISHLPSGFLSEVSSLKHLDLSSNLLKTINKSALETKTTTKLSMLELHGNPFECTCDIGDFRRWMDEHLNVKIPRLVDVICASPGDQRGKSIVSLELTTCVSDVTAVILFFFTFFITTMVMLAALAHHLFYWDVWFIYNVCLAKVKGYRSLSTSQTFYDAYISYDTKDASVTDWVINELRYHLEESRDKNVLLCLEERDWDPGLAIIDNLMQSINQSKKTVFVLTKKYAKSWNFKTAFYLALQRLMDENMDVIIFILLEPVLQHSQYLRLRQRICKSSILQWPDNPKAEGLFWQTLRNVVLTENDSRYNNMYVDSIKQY

For orientation: EC50 means the concentration at which the effect is half-maximal. Turning to `Cc1c(C2C[C@H]3CNC[C@H]3C2)sc2[nH]c(-c3cc(C)c4ncnn4c3)c(C(C)C)c12` (single isomer, unassigned) [Example 69], the EC50 at TLR8 amounted to 4.2 nM; on TLR7, 0.05 nM.

`Cc1c(-c2[nH]c3sc(C4CC5(CCN(CC(N)=O)C5)C4)c(C)c3c2C(C)C)cn2ncnc2c1C` (single isomer, unassigned) [Example 85, 2-(2-(5-(7,8-dimethyl-[1,2,4]triazolo[1,5-a]pyridin-6-yl)-4 isopropyl-3-methyl-6H-thieno[2,3-b]pyrrol-2-yl)-6-azaspiro[3.4]octan-6-yl)acetamide]: the EC50 on TLR8 was 0.39 nM; on TLR7, 0.35 nM.

Regarding `Cc1c(-c2[nH]c3sc(C4CC5(CCN(CC(N)=O)C5)C4)c(C)c3c2C(C)C)cn2ncnc2c1C` (single isomer, unassigned) [Example 86, 2-(2-(5-(7,8-dimethyl-[1,2,4]triazolo[1,5-a]pyridin-6-yl)-4-isopropyl-3-methyl-6H-thieno[2,3-b]pyrrol-2-yl)-6-azaspiro[3.4]octan-6-yl)acetamide], the EC50 amounted to 0.98 nM on TLR8 and 2.43 nM at TLR7.

Consider `Cc1c(-c2[nH]c3sc(C4COC5(CCN(CC(N)=O)CC5)C4)c(C)c3c2C(C)C)cn2ncnc2c1C` (single isomer, unassigned) [Example 87, 2-(3-(5-(7,8-dimethyl-[1,2,4]triazolo[1,5-a]pyridin-6-yl)-4-isopropyl-3-methyl-6H-thieno[2,3-b]pyrrol-2-yl)-1-oxa-8-azaspiro[4.5]decan-8-yl)acetamide], for which the EC50 was 20.9 nM at TLR8 and 0.87 nM at TLR7.

With `Cc1c(-c2[nH]c3sc(C4COC5(CCN(CC(N)=O)CC5)C4)c(C)c3c2C(C)C)cn2ncnc2c1C` (single isomer, unassigned) [Example 88, 2-(3-(5-(7,8-dimethyl-[1,2,4]triazolo[1,5-a]pyridin-6-yl)-4-isopropyl-3-methyl-6H-thieno[2,3-b]pyrrol-2-yl)-1-oxa-8-azaspiro[4.5]decan-8-yl)acetamide], the EC50 on TLR8 stood at 23.8 nM; at TLR7, 1.44 nM.

With `Cc1c(-c2[nH]c3sc(C4CC5(CNCCO5)C4)c(C)c3c2C(C)C)cn2ncnc2c1C` (single isomer, unassigned) [Example 89, 2-(5-(7,8-dimethyl-[1,2,4]triazolo[1,5-a]pyridin-6-yl)-4-isopropyl-3-methyl-6H-thieno[2,3-b]pyrrol-2-yl)-5-oxa-8-azaspiro[3.5]nonane], on TLR7, the EC50 was 0.2 nM.

For `Cc1c(-c2[nH]c3sc(C4CC5(CNCCO5)C4)c(C)c3c2C(C)C)cn2ncnc2c1C` (single isomer, unassigned) [Example 90, 2-(5-(7,8-dimethyl-[1,2,4]triazolo[1,5-a]pyridin-6-yl)-4-isopropyl-3-methyl-6H-thieno[2,3-b]pyrrol-2-yl)-5-oxa-8-azaspiro[3.5]nonane], the EC50 on TLR8 is 6.79 nM; at TLR7 it was 2.68 nM.

For the compound `Cc1c(-c2[nH]c3sc([C@@H]4C[C@@H]5CC[C@H]4CN5CC(N)=O)c(C)c3c2C(C)C)cn2ncnc2c1C` (single isomer, unassigned) [Example 95], the concentration giving a half-maximal response (EC50) on TLR8 amounted to 4.45 nM; at TLR7, 0.7 nM.

For the compound `Cc1c(-c2[nH]c3sc([C@H]4C[C@@H]5CC[C@H]4CN5CC(N)=O)c(C)c3c2C(C)C)cn2ncnc2c1C` (single isomer, unassigned) [Example 96], the EC50 on TLR8 came to 6.75 nM; at TLR7 it was 0.83 nM.

With `Cc1c(-c2[nH]c3sc([C@@H]4C[C@@H]5C[C@H]4CN5C(C)C(N)=O)c(C)c3c2C(C)C)cn2ncnc2c1C` (single isomer, unassigned) [Example 101], the figures for the EC50 on TLR8 and at TLR7 were 0.73 nM and 0.32 nM, respectively.

In the case of `Cc1c(-c2[nH]c3sc(C45CCN(CC(N)=O)CC4C5)c(C)c3c2C(C)C)cn2ncnc2c1C` (single isomer, unassigned) [Example 102, 2-[6-[5-(7,8-dimethyl-[1,2,4]triazolo[1,5-a]pyridin-6-yl)-4-isopropyl-3-methyl-6H-thieno[2,3-b]pyrrol-2-yl]-3-azabicyclo[4.1.0]heptan-3-yl]acetamide], the results for the EC50 on TLR8 and at TLR7 were 23.1 nM and 0.09 nM, respectively.

For `Cc1c(-c2[nH]c3sc(C45CCN(CC(N)=O)CC4C5)c(C)c3c2C(C)C)cn2ncnc2c1C` (single isomer, unassigned) [Example 103, 2-[6-[5-(7,8-dimethyl-[1,2,4]triazolo[1,5-a]pyridin-6-yl)-4-isopropyl-3-methyl-6H-thieno[2,3-b]pyrrol-2-yl]-3-azabicyclo[4.1.0]heptan-3-yl]acetamide], the figures for the EC50 at TLR8 and on TLR7 were 20.4 nM and 0.91 nM, respectively.

Regarding `Cc1c([C@H]2C[C@H]3CC[C@@H]2CN3CC(N)=O)sc2[nH]c(-c3cc(C)c4ncnn4c3)c(C(C)C)c12` (single isomer, unassigned) [Example 190], the EC50 at TLR8 was 13.8 nM; at TLR7 it was 3.52 nM.

As to `Cc1c([C@@H]2C[C@H]3CC[C@@H]2CN3CC(N)=O)sc2[nH]c(-c3cc(C)c4ncnn4c3)c(C(C)C)c12` (single isomer, unassigned) [Example 191], the EC50 at TLR8 was 8.77 nM; on TLR7, below 0.05 nM.

On to `Cc1c(-c2[nH]c3sc([C@H]4C[C@@H]5CC[C@H]4CN5CC(=O)N(C)C)c(C)c3c2C(C)C)cn2ncnc2c1C` (single isomer, unassigned) [Example 212], for which the EC50 is 6.78 nM at TLR8 and 0.45 nM on TLR7.

As to `Cc1c(-c2[nH]c3sc([C@@H]4C[C@@H]5CC[C@H]4CN5CC(=O)N(C)C)c(C)c3c2C(C)C)cn2ncnc2c1C` (single isomer, unassigned) [Example 213], the EC50 on TLR8 amounted to 3.64 nM; on TLR7, 4.05 nM.

Turning to `Cc1c(-c2[nH]c3sc([C@H]4C[C@@H]5CC[C@H]4CN5CCS(C)(=O)=O)c(C)c3c2C(C)C)cn2ncnc2c1C` (single isomer, unassigned) [Example 214], the values for the EC50 on TLR8 and at TLR7 were 3.4 nM and 4.47 nM, respectively.

For the compound `Cc1c(-c2[nH]c3sc([C@H]4C[C@@H]5CC[C@H]4CN5Cc4cn(C)nn4)c(C)c3c2C(C)C)cn2ncnc2c1C` (single isomer, unassigned) [Example 215], the figures for the EC50 on TLR8 and on TLR7 were 0.78 nM and below 0.05 nM, respectively.

With `Cc1c(-c2[nH]c3sc([C@@H]4C[C@@H]5CC[C@H]4CN5Cc4cn(C)nn4)c(C)c3c2C(C)C)cn2ncnc2c1C` (single isomer, unassigned) [Example 216], the values for the EC50 at TLR8 and on TLR7 were 5.26 nM and 2.74 nM, respectively.

On to `Cc1c(-c2[nH]c3sc([C@@H]4C[C@@H]5CC[C@H]4CN5CCS(C)(=O)=O)c(C)c3c2C(C)C)cn2ncnc2c1C` (single isomer, unassigned) [Example 233], for which the EC50 was found to be 0.79 nM at TLR8 and 0.16 nM at TLR7.

On to `Cc1c(-c2[nH]c3sc(C4CC(C(=O)N5CCNCC5)C4)c(C)c3c2C(C)C)cn2ncnc2c1C` (single isomer, unassigned) [Example 238, (3-(5-(7,8-dimethyl-[1,2,4]triazolo[1,5-a]pyridin-6-yl)-4-isopropyl-3-methyl-6H-thieno[2,3-b]pyrrol-2-yl)cyclobutyl)(piperazin-1-yl)methanone], for which the EC50 at TLR8 is 1.44 nM; at TLR7, 0.39 nM.

`Cc1c(-c2[nH]c3sc(C4CC(C(=O)N5CCNCC5)C4)c(C)c3c2C(C)C)cn2ncnc2c1C` (single isomer, unassigned) [Example 239, (3-(5-(7,8-dimethyl-[1,2,4]triazolo[1,5-a]pyridin-6-yl)-4-isopropyl-3-methyl-6H-thieno[2,3-b]pyrrol-2-yl)cyclobutyl)(piperazin-1-yl)methanone]: the figures for the EC50 on TLR8 and at TLR7 were 1.5 nM and below 0.05 nM, respectively.

Consider `Cc1c(-c2[nH]c3sc(C4CC(c5nnc([C@H]6COCCN6)o5)C4)c(C)c3c2C(C)C)cn2ncnc2c1C` (single isomer, unassigned) [Example 240], for which the half-maximal effective concentration (EC50) on TLR8 turned out to be 48.4 nM; at TLR7 it was 4.86 nM.

For `Cc1c(-c2[nH]c3sc(C4CC(c5nnc([C@H]6COCCN6)o5)C4)c(C)c3c2C(C)C)cn2ncnc2c1C` (single isomer, unassigned) [Example 241], the EC50 amounted to 30.7 nM at TLR8 and 3.51 nM at TLR7.

`Cc1c(-c2[nH]c3sc([C@H]4C[C@H](c5nnc([C@@H]6COCCN6)o5)C4)c(C)c3c2C(C)C)cn2ncnc2c1C` (single isomer, unassigned) [Example 242]: the EC50 at TLR8 was determined as 37.3 nM; at TLR7, 2.9 nM.
